Source: patent US8952024B2, “Herbicidal pyrimidone derivatives” (E I du Pont de Nemours and Company, priority 2009, dated 2015)

How the values were obtained:
Format in all cases: in vivo
[1] = test system: barnyardgrass (Echinochloa crus-galli); experiment: Test A pre-/postemergence plant response
How it was run: (§1)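 Injury was scored visually after roughly ten days against untreated controls, 0 = no effect, 100 = complete control. Test chemicals in a surfactant-containing non-phytotoxic solvent were sprayed either onto soil preemergence or onto one- to two-leaf, 2–10 cm plants postemergence.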

[2] = test system: large crabgrass (Digitaria sanguinalis); experiment: Test A pre-/postemergence plant response
How it was run: as §1

[3] = test system: pigweed (Amaranthus retroflexus); experiment: Test A pre-/postemergence plant response
How it was run: as §1

corn (Zea mays) = experiment: Test A pre-/postemergence plant response
How it was run: as §1

[4] = test system: velvetleaf (Abutilon theophrasti); experiment: Test A pre-/postemergence plant response
How it was run: as §1

[5] = test system: wheat (Triticum aestivum); experiment: Test A pre-/postemergence plant response
How it was run: as §1

[6] = test system: giant foxtail (Setaria faberii); experiment: Test A pre-/postemergence plant response
How it was run: as §1

[7] = test system: morningglory (Ipomoea spp.); experiment: Test A pre-/postemergence plant response
How it was run: as §1

rice (Oryza sativa) = experiment: Test B flooded paddy test; details: for Plant response rating, Flood, Rice: 250 g ai/ha, flooded paddy test, visual rating on 0 to 100 scale (0 no effect, 100 complete control) after 13 to 15 days; for Plant response rating, Rice: Flood (flooded paddy test), 13 to 15 days; for Rice plant response rating: Flood, 31 g ai/ha, scale 0 to 100 (0 no effect, 100 complete control)
How it was run: (§2)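 Seedlings reaching 2 leaves are flooded 3 cm deep; test material is delivered to that water, which stays at the same depth. Plants remain in a greenhouse 13–15 days and are then scored by eye versus controls from 0 to 100.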

[8] = test system: barnyardgrass (Echinochloa crus-galli); experiment: Test B flooded paddy test; details: for Plant response rating, Flood, Barnyardgrass: 250 g ai/ha, flooded paddy test, visual rating on 0 to 100 scale (0 no effect, 100 complete control) after 13 to 15 days; for Plant response rating, Barnyardgrass: Flood (flooded paddy test), 13 to 15 days; for Barnyardgrass plant response rating: Flood, 31 g ai/ha, scale 0 to 100 (0 no effect, 100 complete control)
How it was run: as §2

[9] = test system: umbrella sedge (Cyperus difformis); experiment: Test B flooded paddy test; details: for Plant response rating, Flood, Sedge, Umbrella: 250 g ai/ha, flooded paddy test, visual rating on 0 to 100 scale (0 no effect, 100 complete control) after 13 to 15 days; for Plant response rating, Sedge, Umbrella: Flood (flooded paddy test), 13 to 15 days; for Sedge, Umbrella plant response rating: Flood, 31 g ai/ha, scale 0 to 100 (0 no effect, 100 complete control)
How it was run: as §2

[10] = test system: ducksalad (Heteranthera limosa); experiment: Test B flooded paddy test; details: for Plant response rating, Flood, Ducksalad: 250 g ai/ha, flooded paddy test, visual rating on 0 to 100 scale (0 no effect, 100 complete control) after 13 to 15 days; for Plant response rating, Ducksalad: Flood (flooded paddy test), 13 to 15 days; for Ducksalad plant response rating: Flood, 31 g ai/ha, scale 0 to 100 (0 no effect, 100 complete control)
How it was run: as §2

[11] = Postemergence, 125 g ai/ha, 0 to 100 scale where 0 is no effect and 100 is complete control
[12] = Postemergence, 500 g ai/ha, 0 to 100 scale, 0 = no effect, 100 = complete control, approx. ten days
[13] = Preemergence, 125 g ai/ha, 0 to 100 scale, 0 = no effect, 100 = complete control
[14] = Preemergence, 500 g ai/ha, visual injury, 0 to 100 scale (0 no effect, 100 complete control), approx. ten days
[15] = 62 g ai/ha, scale of 0 to 100 where 0 is no effect and 100 is complete control
[16] = 125 g ai/ha, scale 0 to 100, 0 is no effect, 100 is complete control

O=C1CCCC(O)=C1C(=O)c1cnc(-c2cccs2)n(CC2CCCO2)c1=O (centres unmarked) [Compound 109]
Plant response rating, Barnyardgrass [1, 11]: 80 | Plant response rating, Barnyardgrass [1, 12]: 90 | Plant response rating, Barnyardgrass [1, 13]: 10 | Plant response rating, Barnyardgrass [1, 14]: 70 | Plant response rating, Crabgrass, Large [2, 11]: 90 | Plant response rating, Crabgrass, Large [2, 12]: 100 | Plant response rating, Crabgrass, Large [2, 13]: 40 | Plant response rating, Crabgrass, Large [2, 14]: 90 | Plant response rating, Pigweed [3, 11]: 100 | Plant response rating, Pigweed [3, 12]: 100 | Plant response rating, Pigweed [3, 13]: 90 | Plant response rating, Pigweed [3, 14]: 100 | Plant response rating, Corn (corn (Zea mays); [11]): 0 | Plant response rating, Corn (corn (Zea mays); [12]): 30 | Plant response rating, Corn (corn (Zea mays); [13]): 0 | Plant response rating, Corn (corn (Zea mays); [14]): 0 | Plant response rating, Velvetleaf [4, 11]: 100 | Plant response rating, Velvetleaf [4, 12]: 100 | Plant response rating, Velvetleaf [4, 13]: 70 | Plant response rating, Velvetleaf [4, 14]: 100 | Plant response rating, Wheat [5, 11]: 0 | Plant response rating, Wheat [5, 12]: 0 | Plant response rating, Wheat [5, 13]: 0 | Plant response rating, Wheat [5, 14]: 0 | Plant response rating, Foxtail, Giant [6, 11]: 70 | Plant response rating, Foxtail, Giant [6, 12]: 90 | Plant response rating, Foxtail, Giant [6, 13]: 0 | Plant response rating, Foxtail, Giant [6, 14]: 30 | Plant response rating, Morningglory [7, 11]: 90 | Plant response rating, Morningglory [7, 12]: 100 | Plant response rating, Morningglory [7, 13]: 40 | Plant response rating, Morningglory [7, 14]: 70 | Plant response rating, Flood, Rice (rice (Oryza sativa)): 25 | Plant response rating, Rice (rice (Oryza sativa); [15]): 0 | Plant response rating, Rice (rice (Oryza sativa); [16]): 20 | Rice plant response rating (rice (Oryza sativa)): 0 | Plant response rating, Flood, Barnyardgrass [8]: 20 | Plant response rating, Barnyardgrass [8, 15]: 0 | Plant response rating, Barnyardgrass [8, 16]: 20 | Barnyardgrass plant response rating [8]: 0 | Plant response rating, Flood, Sedge, Umbrella [9]: 80 | Plant response rating, Sedge, Umbrella [9, 15]: 60 | Plant response rating, Sedge, Umbrella [9, 16]: 75 | Sedge, Umbrella plant response rating [9]: 50 | Plant response rating, Flood, Ducksalad [10]: 100 | Plant response rating, Ducksalad [10, 15]: 60 | Plant response rating, Ducksalad [10, 16]: 65 | Ducksalad plant response rating [10]: 50

COCCn1c(-c2ccco2)ncc(C(=O)C2=C(O)CCCC2=O)c1=O [Compound 111]
Plant response rating, Barnyardgrass [1, 11]: 90 | Plant response rating, Barnyardgrass [1, 12]: 90 | Plant response rating, Barnyardgrass [1, 13]: 30 | Plant response rating, Barnyardgrass [1, 14]: 90 | Plant response rating, Crabgrass, Large [2, 11]: 90 | Plant response rating, Crabgrass, Large [2, 12]: 90 | Plant response rating, Crabgrass, Large [2, 13]: 90 | Plant response rating, Crabgrass, Large [2, 14]: 100 | Plant response rating, Pigweed [3, 11]: 100 | Plant response rating, Pigweed [3, 12]: 100 | Plant response rating, Pigweed [3, 13]: 100 | Plant response rating, Pigweed [3, 14]: 100 | Plant response rating, Corn (corn (Zea mays); [11]): 0 | Plant response rating, Corn (corn (Zea mays); [12]): 30 | Plant response rating, Corn (corn (Zea mays); [13]): 0 | Plant response rating, Corn (corn (Zea mays); [14]): 0 | Plant response rating, Velvetleaf [4, 11]: 100 | Plant response rating, Velvetleaf [4, 12]: 100 | Plant response rating, Velvetleaf [4, 13]: 90 | Plant response rating, Velvetleaf [4, 14]: 100 | Plant response rating, Wheat [5, 11]: 0 | Plant response rating, Wheat [5, 12]: 0 | Plant response rating, Wheat [5, 13]: 0 | Plant response rating, Wheat [5, 14]: 0 | Plant response rating, Foxtail, Giant [6, 11]: 60 | Plant response rating, Foxtail, Giant [6, 12]: 90 | Plant response rating, Foxtail, Giant [6, 14]: 70 | Plant response rating, Morningglory [7, 11]: 100 | Plant response rating, Morningglory [7, 12]: 100 | Plant response rating, Morningglory [7, 13]: 50 | Plant response rating, Morningglory [7, 14]: 80 | Plant response rating, Flood, Rice (rice (Oryza sativa)): 30 | Plant response rating, Rice (rice (Oryza sativa); [15]): 0 | Plant response rating, Rice (rice (Oryza sativa); [16]): 0 | Rice plant response rating (rice (Oryza sativa)): 0 | Plant response rating, Flood, Barnyardgrass [8]: 60 | Plant response rating, Barnyardgrass [8, 15]: 40 | Plant response rating, Barnyardgrass [8, 16]: 50 | Barnyardgrass plant response rating [8]: 0 | Plant response rating, Flood, Sedge, Umbrella [9]: 85 | Plant response rating, Sedge, Umbrella [9, 15]: 75 | Plant response rating, Sedge, Umbrella [9, 16]: 80 | Sedge, Umbrella plant response rating [9]: 0 | Plant response rating, Flood, Ducksalad [10]: 75 | Plant response rating, Ducksalad [10, 15]: 30 | Plant response rating, Ducksalad [10, 16]: 75 | Ducksalad plant response rating [10]: 30
